We go through seven substances from US20120016010A1, “RNA Interference Mediated Inhibition of BTB and CNC Homology 1, Basic Leucine Zipper Transcription Factor 1 (BACH1) Gene Expression Using Short Interfering Nucleic Acid (siNA)” (Merck Sharp & Dohme Corp, priority 2009, published 2012).

Data set [1] deals with human GAPDH mRNA transcript. Put plainly: GAPDH specificity screen in human A549 cells. It counts as cell-based. The conditions noted are these: Table 5; 1 nM siNA, STAT 4 as endogenous control, relative to universal control siNA. How it is done: To evaluate the expression level and % knock-down of GAPDH, STAT 4 gene was used as an endogenous control to calculate ΔCt for siNA treated samples and the universal control:
STAT 4 gene was selected as an internal normalizer based on its relatively consistent expression across 49 test samples in three independent experiments. ΔΔCt, Relative expression level and % KD were calculated as described above.
The specificity of these siNAs was also assessed. These siNAs were tested at a lower concentration (1 nM versus the original screening concentration of 10 nM) to determine the effect of the Bach1 siNAs on the mRNA transcript of human GAPDH.

The next data set has as its target T1, TLR7 (Homo sapiens, UniProt Q9NYK1).
T1 construct: expressed in transfected cells
T1 sequence (Q9NYK1 27-1049): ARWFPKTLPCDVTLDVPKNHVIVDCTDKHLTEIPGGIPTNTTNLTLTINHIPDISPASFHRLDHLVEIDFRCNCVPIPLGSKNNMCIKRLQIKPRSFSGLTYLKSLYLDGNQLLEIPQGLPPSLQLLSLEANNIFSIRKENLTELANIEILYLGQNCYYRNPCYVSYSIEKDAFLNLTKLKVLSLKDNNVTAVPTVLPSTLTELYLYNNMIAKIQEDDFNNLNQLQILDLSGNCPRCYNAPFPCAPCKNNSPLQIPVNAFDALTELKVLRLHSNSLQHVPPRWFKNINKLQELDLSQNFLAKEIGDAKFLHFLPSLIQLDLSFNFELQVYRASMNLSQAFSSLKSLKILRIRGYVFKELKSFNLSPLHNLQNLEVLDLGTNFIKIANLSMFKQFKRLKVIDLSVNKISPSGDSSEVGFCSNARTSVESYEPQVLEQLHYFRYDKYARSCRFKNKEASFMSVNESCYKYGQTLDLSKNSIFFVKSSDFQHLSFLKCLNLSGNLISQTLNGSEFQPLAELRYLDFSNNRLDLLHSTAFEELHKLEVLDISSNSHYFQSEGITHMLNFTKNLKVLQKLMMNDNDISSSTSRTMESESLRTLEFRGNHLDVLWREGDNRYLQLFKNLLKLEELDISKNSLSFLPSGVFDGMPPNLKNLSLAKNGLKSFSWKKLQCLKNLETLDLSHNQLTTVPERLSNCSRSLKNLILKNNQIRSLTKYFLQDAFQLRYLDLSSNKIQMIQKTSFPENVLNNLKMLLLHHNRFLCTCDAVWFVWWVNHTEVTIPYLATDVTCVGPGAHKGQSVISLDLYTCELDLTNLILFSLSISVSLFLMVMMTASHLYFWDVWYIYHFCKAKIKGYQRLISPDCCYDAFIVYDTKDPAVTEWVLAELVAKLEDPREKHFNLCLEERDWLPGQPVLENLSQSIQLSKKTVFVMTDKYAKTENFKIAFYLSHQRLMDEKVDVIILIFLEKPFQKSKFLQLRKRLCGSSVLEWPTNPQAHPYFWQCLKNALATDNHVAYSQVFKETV
It counts as cell-based. How it is done: Human U205-TLR7 and Human U205-TLR8 cells were grown at 37 degrees in the presence of 5% CO2 and were cultured in Dulbeco's modified Eagle's Medium (DMEM), 1% non essential amino acids, supplemented with fetal bovine serum at 10% and 100 ug/ml streptomycin and 100 u/ml penicillin. Stable expression of TLR7 and TLR8 was maintained by the addition of 300 ug/ml […].
TLR7 and TLR8 expressing U2OS osteosarcoma cells were seeded in 96-well plate format at a concentration of 2×10^4 cells/well 24 hours prior to transfection. Cells were transfected with the siNAs using DharmaFECT1 lipid transfection reagent using Resiquimod (R848) and the LyoVec-complexed, GU-rich oligonucleotide ssRNA40 respectively as controls (100 μl/well). (DharmaFECT1 was used as the delivery agent for the siNAs as it combines low immunostimulatory effects with high delivery efficiency.) The treatment media were replaced after 6 hours with antibiotic containing DMEM. Cells were harvested 24 hours following transfection. […] An agonist concentration range of 4-10 μg/ml was established since it caused optimal levels of IL8 mRNA expression for the assay.
TLR7 and TLR8 mediated immunostimulation was measured by the increase in IL8 mRNA levels when the siNAs were formulated with DharmaFect1 (Gibco BRL) and delivered to U2OS cells that were engineered to stably express TLR7 or TLR8. The cells were treated with the TLR7 and TLR8 agonists Resiquimod (R848) and ssRNA40/LyoVec respectively to act as positive controls for IL8 mRNA induction. IL8 mRNA levels were used as a biomarker of TLR7 and TLR8 mediated immunostimulation.

As to “29947-DC (sense GGAAUCCUGCUUUCAGUUUTT; antisense AAACUGAAAGCAGGAUUCCUU; inverted abasic caps (B), 2'-modified nucleotides, further chemistry not given here)”, the “% KD GAPDH” value in data set [1] is −15 ± 29%. Besides, in the data set with TLR7, the “Immunostimulation TLR7 mediated in Human U2OS- TLR7 cells IL8 mRNA increase n = 4 individual expts” value is listed as “No significant effect up to 100 nM” and the “TLR7 mediated immunostimulatory activity (IL8 mRNA induction)” value (“TLR7 mediated immunostimulatory activity” below) was “no or very low TLR7 mediated immunostimulatory activity”.

As to “29956-DC (sense GUCUGAGUGUCCGUGGUUATT; antisense UAACCACGGACACUCAGACUU; inverted abasic caps (B), 2'-modified nucleotides, further chemistry not given here)”, the “% KD GAPDH” value in data set [1] is given as −18 ± 15%. In addition, the “Immunostimulation TLR7 mediated in Human U2OS- TLR7 cells IL8 mRNA increase n = 4 individual expts” value with TLR7 is reported as “No significant effect up to 100 nM”.

Turning to “29957-DC (sense GCAGUUACUUCCACUCAAGTT; antisense CUUGAGUGGAAGUAACUGCUU; inverted abasic end caps, TT overhangs, modified nucleotides, further chemistry not given here)”, the “% KD GAPDH” value in data set [1] is on record as −10 ± 9%. For the same substance, the “Immunostimulation TLR7 mediated in Human U2OS- TLR7 cells IL8 mRNA increase n = 4 individual expts” value with TLR7 is on record as “Upregulation up to 100 nM”.

As to “29961-DC (sense CUACACUGCUAAACUGAUUTT; antisense AAUCAGUUUAGCAGUGUAGUU; inverted abasic end caps, TT overhangs, modified nucleotides, further chemistry not given here)”, the “% KD GAPDH” value in data set [1] is 7 ± 7%. In the data set with TLR7, the “Immunostimulation TLR7 mediated in Human U2OS- TLR7 cells IL8 mRNA increase n = 4 individual expts” value is recorded as “No significant effect up to 100 nM” and the “TLR7 mediated immunostimulatory activity” value is “no or very low TLR7 mediated immunostimulatory activity”.

For the substance “29964-DC (sense GAUUUGCAGGUGAUGUUAATT; antisense UUAACAUCACCUGCAAAUCUU; inverted abasic end caps, TT overhangs, modified nucleotides, further chemistry not given here)”, the “% KD GAPDH” value in data set [1] is 14 ± 2%. In addition, in the data set with TLR7, the “Immunostimulation TLR7 mediated in Human U2OS- TLR7 cells IL8 mRNA increase n = 4 individual expts” value was “No significant effect up to 100 nM” and the “TLR7 mediated immunostimulatory activity” value is “no or very low TLR7 mediated immunostimulatory activity”.

For “29984-DC (sense GUUAAAGGAUUUGAACCUUTT; antisense AAGGUUCAAAUCCUUUAACUU; inverted abasic end caps, TT overhangs, modified nucleotides, further chemistry not given here)”, in the data set with TLR7, the “Immunostimulation TLR7 mediated in Human U2OS- TLR7 cells IL8 mRNA increase n = 4 individual expts” value is given as “No significant effect up to 100 nM” and the “TLR7 mediated immunostimulatory activity” value was “no or very low TLR7 mediated immunostimulatory activity”.

Consider “29988-DC (sense AUUUGAACCUUUAAUUCAGTT; antisense CUGAAUUAAAGGUUCAAAUUU; inverted abasic end caps, TT overhangs, modified nucleotides, further chemistry not given here)”, for which, in data set [1], the “% KD GAPDH” value amounted to 23 ± 5%. Also, in the data set with TLR7, the “Immunostimulation TLR7 mediated in Human U2OS- TLR7 cells IL8 mRNA increase n = 4 individual expts” value is reported as “No significant effect up to 100 nM” and the “TLR7 mediated immunostimulatory activity” value was “no or very low TLR7 mediated immunostimulatory activity”.
